Source: patent EP0384522A1, “Antiviral tetrahydroimidazo[1,4]benzodiazepin-2-thiones” (priority 1989, dated 1990)
In brackets after ≈: the same amount, converted by molar mass. Where two headings read alike, the source gives them in different places.

Legend:
Type in all cases: cell-based
in vitro = details: human, mt-4 cells, CD₅₀ (50% cytotoxic dose)
Description: (§1) A rapid, sensitive and automated assay procedure was used for the in-vitro evaluation of anti-HIV agents. An […] T4-cell line, MT-4, which was previously shown (Koyanagi et al., Int. J. Cancer, 36, 445-451, 1985) to be highly susceptible to and permissive for HIV infection, served as the target cell line. Inhibition of the HIV-induced cytopathic effect was used as the end point. The viability of both HIV- and mock-infected cells was assessed spectrophotometrically via the in-situ reduction of 3-(4,5-dimethylthiazol-2-yl)-2,5-diphenyltetrazolium bromide (MTT). The 50% cytotoxic dose (CD₅₀ in µg/ml) was defined as the concentration of compound that reduced the absorbance of the mock-infected control sample by 50%. The percent protection achieved by the compound in HIV-infected cells was calculated by the following formula: [formula] whereby (ODT)HIV is the optical density measured with a given concentration of the test compound in HIV-infected cells; (ODC)HIV is the optical density measured for the control untreated HIV-infected cells; (ODC)MOCK is the optical density measured for the control untreated mock-infected cells; all optical density values were determined at 540 nm. The dose achieving 50% protection according to the above formula was defined as the 50% effective dose (ED₅₀ in µg/ml). The ratio of CD₅₀ to ED₅₀ was defined as the selectivity index (SI).

HIV = assay: Inhibition of the HIV-induced cytopathic effect in MT-4 cells (MTT assay); details: for EC50: Human immunodeficiency virus 1, MT4, dose achieving 50% protection of HIV-infected MT-4 cells, read-out: ED₅₀ (50% effective dose); for EC50 / ED₅₀ (50% effective dose): MTT, 540 nm; for ED₅₀ (50% effective dose): dose achieving 50% protection of HIV-infected MT-4 cells
Description: as §1

mock-infected MT-4 cells = assay: in vitro; details: human
Description: as §1

Row | EC50 (HIV) | Compound | CC50 (in vitro) | SI (selectivity index) (HIV; ratio of CD₅₀ to ED₅₀) | CD₅₀ (50% cytotoxic dose) (mock-infected MT-4 cells) | SI (selectivity index) (HIV) | ED₅₀ (50% effective dose) (HIV)
1 | 0.155 µg/mL (≈ 0.593 µM) | CCCN1Cc2cccc3[nH]c(=S)n(c23)CC1C (stereo not drawn) [compound 1, 4,5,6,7-tetrahydro-5-methyl-6-propylimidazo-[4.5.1-jk][1,4]benzodiazepine-2(1H)-thione] | 147 µg/mL (≈ 562 µM) | 948 |  |  | 
2 | 0.0126 µg/mL (≈ 0.0461 µM) | C=C(C)CN1Cc2cccc3[nH]c(=S)n(c23)C[C@@H]1C [compound 8] | 4.6 µg/mL (≈ 16.8 µM) | 365 |  |  | 
3 | 0.045 µg/mL (≈ 0.157 µM) | CC(C)=CCN1Cc2cccc3[nH]c(=S)n(c23)C[C@H]1C [compound 6] | ≥ 250 µg/mL | ≧5555 |  |  | 
4 | 0.013 µg/mL (≈ 0.0452 µM) | CC(C)=CCN1Cc2cccc3[nH]c(=S)n(c23)CC1C (racemic) [compound 4, (±)-4,5,6,7-tetrahydro-5-methyl-6-(3-methyl-2-butenyl)imidazo[4,5,1-jk][1,4]benzodiazepine-2(1H)-thione] | 25 µg/mL (≈ 87 µM) | 1923 |  |  | 

The next lines start with the compound.

Row | Compound | EC50 (HIV) | CC50 (in vitro) | SI (selectivity index) (HIV; ratio of CD₅₀ to ED₅₀) | CD₅₀ (50% cytotoxic dose) (mock-infected MT-4 cells) | SI (selectivity index) (HIV) | ED₅₀ (50% effective dose) (HIV)
5 | CC(C)=CCN1Cc2cc(Cl)cc3[nH]c(=S)n(c23)C[C@@H]1C [compound 3, (+)-(S)-9-chloro-4,5,6,7-tetrahydro-5-methyl-6-(3-methyl-2-butenyl)imidazo[4,5,1-jk][1,4]benzodiazepine-2(1H)-thione] |  |  |  | 10 µg/mL | 20400 | 0.0005 µg/mL
6 | CC(C)=CCN1Cc2cccc3[nH]c(=S)n(c23)C[C@@H]1C [compound 5, (+)-(S)-4,5,6,7-tetrahydro-5-methyl-6-(3-methyl-2-butenyl)imidazo[4,5,1-jk] [1,4]benzodiazepine-2(1H)-thione] | 0.008 µg/mL (≈ 0.0278 µM) | 325 µg/mL (≈ 1130 µM) | 40625 |  |  | 
7 | C[C@H]1Cn2c(=S)[nH]c3cccc(c32)CN1CC1CC1 [compound 9] | 0.0166 µg/mL (≈ 0.0607 µM) | > 250 µg/mL | >15029 |  |  | 
8 | CC(C)=CCN1Cc2cc(Cl)cc3[nH]c(=S)n(c23)C[C@@H]1C [compound 7] |  |  |  | 23 µg/mL | 12778 | 0.0018 µg/mL
